# Data from patent US8440710B2, “HSL inhibitors useful in the treatment of diabetes” (Hoffmann-La Roche Inc., priority 2009, dated 2013).
# Biological target: T1, human HSL (Homo sapiens, UniProt Q05469)
# T1 construct: generate a full length human HSL ORF with a 3′-His6 tag; made in house; host or cells: High 5 insect cells (baculovirus, pFast-BAC)
# T1 sequence (Q05469 1-1076): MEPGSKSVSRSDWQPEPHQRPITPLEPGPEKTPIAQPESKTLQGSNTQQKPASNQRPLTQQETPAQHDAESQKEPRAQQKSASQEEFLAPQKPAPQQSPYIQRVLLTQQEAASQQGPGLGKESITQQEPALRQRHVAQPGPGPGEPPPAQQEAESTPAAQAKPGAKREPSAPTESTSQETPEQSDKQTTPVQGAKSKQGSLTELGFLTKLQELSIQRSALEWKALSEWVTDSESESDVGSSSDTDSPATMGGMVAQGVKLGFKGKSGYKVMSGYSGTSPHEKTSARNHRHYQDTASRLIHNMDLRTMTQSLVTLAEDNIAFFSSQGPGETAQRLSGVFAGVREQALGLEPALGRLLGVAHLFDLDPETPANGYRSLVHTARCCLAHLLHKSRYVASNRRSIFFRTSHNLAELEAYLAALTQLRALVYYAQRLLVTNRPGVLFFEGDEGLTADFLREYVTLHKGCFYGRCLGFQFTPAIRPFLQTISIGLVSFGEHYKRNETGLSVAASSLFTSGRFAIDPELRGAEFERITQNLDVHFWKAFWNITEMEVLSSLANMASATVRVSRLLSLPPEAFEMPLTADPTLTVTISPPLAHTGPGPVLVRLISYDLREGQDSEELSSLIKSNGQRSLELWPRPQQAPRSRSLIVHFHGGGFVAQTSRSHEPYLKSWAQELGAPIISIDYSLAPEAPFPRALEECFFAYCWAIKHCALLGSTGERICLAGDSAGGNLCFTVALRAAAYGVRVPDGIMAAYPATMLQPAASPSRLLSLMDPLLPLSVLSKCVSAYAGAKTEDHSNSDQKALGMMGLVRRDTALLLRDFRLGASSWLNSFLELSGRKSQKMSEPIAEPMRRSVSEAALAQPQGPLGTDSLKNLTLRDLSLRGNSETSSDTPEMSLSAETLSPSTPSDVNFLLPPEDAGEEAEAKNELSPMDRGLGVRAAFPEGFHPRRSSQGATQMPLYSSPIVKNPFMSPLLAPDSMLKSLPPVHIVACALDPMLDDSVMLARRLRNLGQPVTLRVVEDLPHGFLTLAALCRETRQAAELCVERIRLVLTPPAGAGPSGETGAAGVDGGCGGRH
# Test: Human Hormone-Sensitive Lipase (HSL) enzyme inhibition assay (colorimetric, DMPT substrate)
# Assay type: biochemical
# Conditions: human full length HSL-His6, 2,3-dimercapto-1-propanol tributyrate substrate, 37° C. 20 minutes, absorbance at 405 nm; read-out: HSL hum IC50
# Summary of the method: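 Full-length human HSL with C-terminal His6, expressed in baculovirus-infected High 5 cells and Ni-NTA purified, was added (15 ug/ml stock) to 1.5 mM DMPT in 100 mM MOPS pH 7.2, 0.2 mg/ml fatty acid-free BSA containing compound. After 20 min at 37 °C, DTNB with SDS/Triton X-100 was added; A405 read after 15 min at RT.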
row,Structure (SMILES),IC50 [nM]
1,"COCC#C[C@]1(O)CC[C@]2(CCN(c3ccc(CC(F)(F)F)cc3)C2=O)CC1 [Example 92, (5α,8α)-8-Hydroxy-8-(3-methoxy-prop-1-ynyl)-2-[4-(2,2,2-trifluoro-ethyl)-phenyl]-2-aza-spiro[4.5]decan-1-one]",30
2,"COCCC[C@]1(O)CC[C@]2(CCN(c3ccc(CC(F)(F)F)cc3)C2=O)CC1 [Example 93, (5α,8α)-8-Hydroxy-8-(3-methoxy-propyl)-2-[4-(2,2,2-trifluoro-ethyl)-phenyl]-2-aza-spiro[4.5]decan-1-one]",20
3,"CCC[C@]1(O)CC[C@]2(CCN(c3ccc(OCCCOC)cc3)C2=O)CC1 [Example 94, (5α,8α)-8-Hydroxy-2-[4-(3-methoxy-propoxy)-phenyl]-8-propyl-2-aza-spiro[4.5]decan-1-one]",80
4,"CCC[C@]1(O)CC[C@]2(CCN(c3ccc(OCCOC)cc3)C2=O)CC1 [Example 95, (5α,8α)-8-Hydroxy-2-[4-(2-methoxy-ethoxy)-phenyl]-8-propyl-2-aza-spiro[4.5]decan-1-one]",240
5,"CCCC[C@]1(O)CC[C@]2(CCN(c3ccc(OCCOC)cc3)C2=O)CC1 [Example 96, (5α,8α)-8-Butyl-8-hydroxy-2-[4-(2-methoxy-ethoxy)-phenyl]-2-aza-spiro[4.5]decan-1-one]",60
6,"CCCC[C@]1(O)CC[C@@]2(CCN(c3ccc(OCCOC)cc3)C2=O)CC1 [Example 97, (5α,8β)-8-Butyl-8-hydroxy-2-[4-(2-methoxy-ethoxy)-phenyl]-2-aza-spiro[4.5]decan-1-one]",1820
7,"O=C1N(c2ccc(OCCC(F)(F)F)cc2)CC[C@]12CC[C@@H](O)CC2 [Example 98, (5α,8β)-8-Hydroxy-2-[4-(3,3,3-trifluoro-propoxy)-phenyl]-2-aza-spiro[4.5]decan-1-one]",2500
8,"CCC[C@]1(O)CC[C@]2(CCN(c3ccc(OCCC(F)(F)F)cc3)C2=O)CC1 [Example 99, (5α,8α)-8-Hydroxy-8-propyl-2-[4-(3,3,3-trifluoro-propoxy)-phenyl]-2-aza-spiro[4.5]decan-1-one]",30
9,"CCC[C@]1(O)CC[C@@]2(CCN(c3ccc(OCCC(F)(F)F)cc3)C2=O)CC1 [Example 100, (5α,8β)-8-Hydroxy-8-propyl-2-[4-(3,3,3-trifluoro-propoxy)-phenyl]-2-aza-spiro[4.5]decan-1-one]",360
10,"CCC[C@]1(O)CC[C@]2(CCN(c3ccc(C(C)C)nc3)C2=O)CC1 [Example 101, (5α,8α)-8-Hydroxy-2-(6-isopropylpyridin-3-yl)-8-propyl-2-aza-spiro[4.5]decan-1-one]",110
11,"CC(C)c1ccc(N2CC[C@]3(CC[C@@](O)(C(C)C)CC3)C2=O)cn1 [Example 102, (5α,8α)-8-Hydroxy-8-isopropyl-2-(6-isopropylpyridin-3-yl)-2-aza-spiro[4.5]decan-1-one]",100
12,"CC(C)[C@]1(O)CC[C@]2(CCN(c3ccc(OCC(F)(F)F)cc3)C2=O)CC1 [Example 103, (5α,8α)-8-Hydroxy-8-isopropyl-2-[4-(2,2,2-trifluoro-ethoxy)-phenyl]-2-aza-spiro[4.5]decan-1-one]",20
13,"CCC[C@]1(O)CC[C@]2(CCN(c3ccc(OCC(F)(F)F)cc3)C2=O)CC1 [Example 104, 8-Hydroxy-8-propyl-2-[4-(2,2,2-trifluoro-ethoxy)-phenyl]-2-aza-spiro[4.5]decan-1-one]",20
14,"C=C(C)[C@]1(O)CC[C@]2(CCN(c3ccc(OCC(F)(F)F)cc3)C2=O)CC1 [Example 105, (5α,8α)-8-Hydroxy-8-(prop-1-en-2-yl)-2-(4-(2,2,2-trifluoroethoxy)phenyl)-2-aza-spiro[4.5]decan-1-one]",30
15,"C=C(C)[C@]1(O)CC[C@@]2(CCN(c3ccc(OCC(F)(F)F)cc3)C2=O)CC1 [Example 106, (5α,8β)-8-Hydroxy-8-(prop-1-en-2-yl)-2-(4-(2,2,2-trifluoroethoxy)phenyl)-2-aza-spiro[4.5]decan-1-one]",1350
16,"CC(C)[C@]1(O)CC[C@@]2(CCN(c3ccc(OCC(F)(F)F)cc3)C2=O)CC1 [Example 107, (5α,8β)-8-Hydroxy-8-isopropyl-2-(4-(2,2,2-trifluoroethoxy)phenyl)-2-aza-spiro[4.5]decan-1-one]",2030
17,"CC(C)[C@]1(O)CC[C@]2(CCN(c3ccc(OCC(F)(F)F)nc3)C2=O)CC1 [Example 108, (5α,8α)-8-Hydroxy-8-isopropyl-2-(6-(2,2,2-trifluoroethoxy)pyridin-3-yl)-2-aza-spiro[4.5]decan-1-one]",20
18,"CC(C)[C@]1(O)CC[C@@]2(CCN(c3ccc(OCC(F)(F)F)nc3)C2=O)CC1 [Example 109, (5α,8β)-8-Hydroxy-8-isopropyl-2-(6-(2,2,2-trifluoroethoxy)pyridin-3-yl)-2-aza-spiro[4.5]decan-1-one]",2220
19,"COC[C@]1(O)CC[C@]2(CCN(c3ccc(OCC(F)(F)F)nc3)C2=O)CC1 [Example 110, (5α,8α)-8-Hydroxy-8-(methoxymethyl)-2-(6-(2,2,2-trifluoroethoxy)pyridin-3-yl)-2-aza-spiro[4.5]decan-1-one]",190
20,"CC#C[C@]1(O)CC[C@]2(CCN(c3ccc(OCC(F)(F)F)cc3)C2=O)CC1 [Example 111, (5α,8α)-8-Hydroxy-8-prop-1-ynyl-2-[4-(2,2,2-trifluoro-ethoxy)phenyl]-2-aza-spiro[4.5]decan-1-one]",100
21,"O=C1N(c2ccc(OC(F)(F)F)cc2)CC[C@]12CC[C@@](O)(C(F)(F)F)CC2 [Example 112, (5α,8α)-8-Hydroxy-2-(4-trifluoromethoxy-phenyl)-8-trifluoromethyl-2-aza-spiro[4.5]decan-1-one]",20
22,"O=C1N(c2ccc(OC(F)(F)F)cc2)CC[C@]12CC[C@](O)(C(F)(F)F)CC2 [Example 113, (5α,8β)-8-Hydroxy-2-(4-trifluoromethoxy-phenyl)-8-trifluoromethyl-2-aza-spiro[4.5]decan-1-one]",2180
23,"COC[C@]1(O)CC[C@]2(CCN(c3ccc(OC(F)(F)F)cc3)C2=O)CC1 [Example 114, (5α,8α)-8-Hydroxy-8-methoxymethyl-2-(4-trifluoromethoxy-phenyl)-2-aza-spiro[4.5]decan-1-one]",30
24,"COC[C@]1(O)CC[C@@]2(CCN(c3ccc(OC(F)(F)F)cc3)C2=O)CC1 [Example 115, (5α,8β)-8-Hydroxy-8-methoxymethyl-2-(4-trifluoromethoxy-phenyl)-2-aza-spiro[4.5]decan-1-one]",680
25,"CCOC(=O)C[C@]1(O)CC[C@]2(CCN(c3ccc(OC(F)(F)F)cc3)C2=O)CC1 [Example 116, [(5α,8α)-8-Hydroxy-1-oxo-2-(4-trifluoromethoxy-phenyl)-2-aza-spiro[4.5]dec-8-yl]-acetic acid ethyl ester]",10
26,"CCOC[C@]1(O)CC[C@]2(CCN(c3ccc(OC(F)(F)F)cc3)C2=O)CC1 [Example 117, (5α,8α)-8-Ethoxymethyl-8-hydroxy-2-(4-trifluoromethoxy-phenyl)-2-aza-spiro[4.5]decan-1-one]",20
27,"O=C1N(c2ccc(OC(F)(F)F)cc2)CC[C@]12CC[C@@](O)(CCO)CC2 [Example 118, (5α,8α)-8-Hydroxy-8-(2-hydroxy-ethyl)-2-(4-trifluoromethoxy-phenyl)-2-aza-spiro[4.5]decan-1-one]",100
